Measurements: the NIST ThermoML archive (doi:10.1021/acs.jced.5b00285)

Settings: 101.33 kPa, Liquid; for electrical conductivity: Alternating current cell with electrodes; for mass density: Vibrating tube method

CCCCn1cc[n+](C)c1.O=S(=O)([N-]S(=O)(=O)C(F)(F)C(F)(F)F)C(F)(F)C(F)(F)F [1-butyl-3-methylimidazolium bis(perfluoroethylsulfonyl)imide]
Settings | electrical conductivity [S/m] | mass density [kg/m3] | viscosity [mPa·s]
273.15 K | 0.0324 | 1539.6 | 579.1
278.15 K | 0.046 | 1534 | 398.8
283.15 K | 0.0634 | 1528.5 | 282.2
288.15 K | 0.0853 | 1523.88 | 205.3
293.15 K | 0.112 | 1518.55 | 153.3
298.15 K | 0.145 | 1513.25 | 115.9
303.15 K | 0.183 | 1507.96 | 89.72
308.15 K | 0.227 | – | –
313.15 K | 0.278 | 1497.47 | 56.57
318.15 K | 0.336 | – | –
323.15 K | 0.4 | 1487.06 | 37.86
328.15 K | 0.475 | – | –
333.15 K | 0.549 | 1476.73 | 26.63
338.15 K | 0.638 | – | –
343.15 K | 0.724 | 1466.47 | 19.48
348.15 K | 0.831 | – | –
353.15 K | 0.928 | 1456.27 | 14.74
358.15 K | 1.05 | – | –
363.15 K | – | 1446.14 | 11.48
368.15 K | 1.29 | – | –
378.15 K | 1.56 | – | –
388.15 K | 1.86 | – | –
398.15 K | 2.16 | – | –
408.15 K | 2.49 | – | –
418.15 K | 2.83 | – | –
428.15 K | 3.19 | – | –
438.15 K | 3.56 | – | –
448.15 K | 3.94 | – | –
458.15 K | 4.33 | – | –
468.15 K | 4.72 | – | –

CC(=O)[O-].CCn1cc[n+](C)c1 [1-ethyl-3-methylimidazolium acetate]
Settings | electrical conductivity [S/m] | mass density [kg/m3] | viscosity [mPa·s]
278.15 K | – | 1111.95 | 701.2
288.15 K | – | 1105.67 | 288
298.15 K | 0.278 | 1099.44 | 141.1
308.15 K | 0.471 | 1093.24 | 78.27
318.15 K | 0.733 | 1087.13 | 47.69
328.15 K | 1.07 | 1081.09 | 31.26
338.15 K | 1.48 | 1075.11 | 21.77
348.15 K | 1.96 | 1069.17 | 16.01
358.15 K | 2.5 | 1063.3 | 12.19
368.15 K | 3.11 | – | 9.558
378.15 K | 3.8 | – | 7.71
388.15 K | 4.53 | – | 6.362
398.15 K | 5.31 | – | 5.356
408.15 K | 6.13 | – | 4.589
418.15 K | 6.92 | – | –
